Results reported in patent publication US20070196478A1, “ANTIVIRAL COMPOSITIONS” (priority 1999, published 2007).

Assay: thermal stability of the antiviral compound after melt extrusion (HPLC)
Assay type: physicochemical
Details: melt extrudate with HPMC 2910 5 mPa·s, 70° C. to […] C.
Excerpt: The melt extrudate was milled and fractions with particle size below 150 μm (condition I in point 6) and between 500 and 850 μm (condition II in point 6) were collected.

Cc1cc(C)c(Nc2ccnc(Nc3ccc(C#N)cc3)n2)c(C)c1 [Compound 17 of formula (I-A), 4-[[4-[(2,4,6-trimethylphenyl)amino]-2-pyrimidinyl]amino]benzonitrile]
degradation of the antiviral compound after melt extrusion: No degradation
